ChEMBL document CHEMBL1201862, “PubChem BioAssay data set” (2004)
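Compound exposure: 48 hours, 5 concentrations, 96-well plates. GI50: concentration for 50% inhibition of growth.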 Active and inactive are the calls of the source. Rule as the data show it: active = GI50 up to about 1.1 µM and inactive = higher.

Tests used:
Assay in all cases: DTP human tumour cell line panel, 48 h
K562 = test system: K562
NCI-H522 = test system: NCI-H522
MOLT-4 = test system: MOLT-4
DU-145 = test system: DU-145
ACHN = test system: ACHN
HOP-92 = test system: HOP-92
Hs-578T = test system: Hs-578T
SN12C = test system: SN12C
NCI-H23 = test system: NCI-H23
MDA-MB-231 = test system: MDA-MB-231
HOP-62 = test system: HOP-62
786-0 = test system: 786-0
TK-10 = test system: TK-10
UO-31 = test system: UO-31
HCT-15 = test system: HCT-15
NCI/ADR-RES = test system: NCI/ADR-RES
T47D = test system: T47D

| SMILES | GI50 (K562) | GI50 (NCI-H522) | GI50 (MOLT-4) | GI50 (DU-145) | GI50 (ACHN) | GI50 (HOP-92) | GI50 (Hs-578T) | GI50 (SN12C) | GI50 (NCI-H23) | GI50 (MDA-MB-231) | GI50 (HOP-62) | GI50 (786-0) | GI50 (TK-10) | GI50 (UO-31) | GI50 (HCT-15) [µM] | GI50 (NCI/ADR-RES) | GI50 (T47D) |
| --- | --- | --- | --- | --- | --- | --- | --- | --- | --- | --- | --- | --- | --- | --- | --- | --- | --- |
| CC(O)c1cc2c(s1)C(=O)c1sccc1C2=O (configuration not stated) | 0.353 µM (active) | 0.148 µM (active) | 0.268 µM (active) | 0.0202 µM (active) | 0.15 µM (active) | 0.386 µM (active) | 0.0638 µM (active) | 0.112 µM (active) | 0.0155 µM (active) | 0.172 µM (active) | 0.163 µM (active) | 0.303 µM (active) | 0.213 µM (active) | 0.185 µM (active) | 0.0454 | 0.178 µM (active) | 0.329 µM (active) |
| N#Cc1c(N)n(C2OC(CO)C(O)C2O)c2ncnc(N)c12 (configuration not stated) | 0.048 µM (active) | 0.135 µM (active) | 0.0248 µM (active) | 0.112 µM (active) | 0.0312 µM (active) | 0.136 µM (active) | 0.144 µM (active) | 0.0186 µM (active) | 0.0292 µM (active) | 0.0364 µM (active) | 0.0335 µM (active) | 0.0671 µM (active) | 0.0211 µM (active) | 0.0847 µM (active) | 0.0277 | 0.0243 µM (active) | 0.0403 µM (active) |
| CCN(CCCl)c1cc(CN(C)C)cc(NC(=O)C23CCC(C(=O)Nc4cc(CN(C)C)cc(N(CC)CCCl)c4)(CC2)CC3)c1 | 0.738 µM (active) | 0.202 µM (active) | < 0.01 µM (active) | 0.804 µM (active) | 2.22 µM (inactive) | 1.43 µM (inactive) | 0.46 µM (active) | 0.245 µM (active) | 0.424 µM (active) | 12.8 µM (inactive) | 0.372 µM (active) | 0.073 µM (active) | 8.49 µM (inactive) | 17.1 µM (inactive) | 13.4 | 29.9 µM (inactive) | 3.03 µM (inactive) |
| COC(=O)CC1C2(C)C3=C(C)C(c4ccoc4)CC3OC2C2OC(=O)C3(C)C=CC(=O)C1(C)C23 (configuration not stated) | 0.474 µM (active) | 0.575 µM (active) | 0.455 µM (active) | 0.76 µM (active) | 1.2 µM (inactive) | 1.82 µM (inactive) | 3.5 µM (inactive) | 0.859 µM (active) | 1.57 µM (inactive) | 1.22 µM (inactive) | 3.28 µM (inactive) | 0.869 µM (active) | 2.28 µM (inactive) | 1.19 µM (inactive) | 0.67 | 2.04 µM (inactive) | 1.38 µM (inactive) |
| COC(=O)CNC(=O)/C=C/[C@H](O[Si](C)(C)C(C)(C)C)[C@H](/C=C/C(=O)NCC(=O)OC)O[Si](C)(C)C(C)(C)C | > 25 µM (inactive) | > 25 µM (inactive) | > 25 µM (inactive) | > 25 µM (inactive) | > 25 µM (inactive) | > 25 µM (inactive) | > 25 µM (inactive) | > 25 µM (inactive) | > 25 µM (inactive) | > 25 µM (inactive) | > 25 µM (inactive) | > 25 µM (inactive) | > 25 µM (inactive) | > 25 µM (inactive) | > 25 | > 25 µM (inactive) | > 25 µM (inactive) |
| C=CC(C)(C)C(=C)C(=O)N(C)c1ccccc1I | > 100 µM (inactive) | > 100 µM (inactive) | 83.2 µM (inactive) | > 100 µM (inactive) | > 100 µM (inactive) | > 100 µM (inactive) | 57.9 µM (inactive) | > 100 µM (inactive) | 84.1 µM (inactive) | > 100 µM (inactive) | > 100 µM (inactive) | > 100 µM (inactive) | > 100 µM (inactive) | > 100 µM (inactive) | > 100 | > 100 µM (inactive) | > 100 µM (inactive) |
| O=C(CC(=O)N1N=C(N(c2ccccc2)c2ccccc2)CC1c1ccccc1)Nc1cccc(Cl)c1 (configuration not stated) | > 100 µM (inactive) | > 100 µM (inactive) | > 100 µM (inactive) | > 100 µM (inactive) | > 100 µM (inactive) | > 100 µM (inactive) | > 100 µM (inactive) | > 100 µM (inactive) | > 100 µM (inactive) | > 100 µM (inactive) | > 100 µM (inactive) | > 100 µM (inactive) | > 100 µM (inactive) | > 100 µM (inactive) | > 100 | > 100 µM (inactive) | > 100 µM (inactive) |
| CSc1c(CC(=O)O)n(Cc2ccccc2)c2ccccc12 | 72.3 µM (inactive) | 89.3 µM (inactive) | > 100 µM (inactive) | > 100 µM (inactive) | > 100 µM (inactive) | > 100 µM (inactive) | > 100 µM (inactive) | > 100 µM (inactive) | > 100 µM (inactive) | > 100 µM (inactive) | > 100 µM (inactive) | > 100 µM (inactive) | > 100 µM (inactive) | > 100 µM (inactive) | 74.5 | > 100 µM (inactive) | 91.6 µM (inactive) |
| CN(CCc1ccccn1)C(=S)N/N=C/c1ccccn1 | < 0.01 µM (active) | < 0.01 µM (active) | < 0.01 µM (active) | 0.298 µM (active) | 0.0366 µM (active) | 0.105 µM (active) | 20 µM (inactive) | 0.111 µM (active) | < 0.0275 µM (active) | < 0.01 µM (active) | 0.0336 µM (active) | 0.0495 µM (active) | 0.043 µM (active) | 0.139 µM (active) | 0.0148 | < 0.0201 µM (active) | < 0.01 µM (active) |
| O=C1c2c(ccc3c2CCCC3)CC12Cc1ccc3c(c1C2=O)CCCC3 | > 100 µM (inactive) | > 100 µM (inactive) | > 100 µM (inactive) | > 100 µM (inactive) | > 100 µM (inactive) | 60.7 µM (inactive) | > 100 µM (inactive) |  | > 100 µM (inactive) | > 100 µM (inactive) | > 100 µM (inactive) | > 100 µM (inactive) | > 100 µM (inactive) | > 100 µM (inactive) | > 100 | > 100 µM (inactive) | > 100 µM (inactive) |
| CCC1=C(c2ccc(OC)cc2)CC[C@@]2(CCNC2=O)[C@@H]1C | 26.5 µM (inactive) | 32.4 µM (inactive) | 24.9 µM (inactive) | > 100 µM (inactive) | > 89.7 µM (inactive) | > 100 µM (inactive) | > 52.2 µM (inactive) | > 100 µM (inactive) | > 43.2 µM (inactive) | > 100 µM (inactive) | > 100 µM (inactive) | > 100 µM (inactive) | > 100 µM (inactive) | > 96.2 µM (inactive) | > 100 | > 74.1 µM (inactive) | > 50.7 µM (inactive) |
| COc1cc2c3c(c1OC)C(=O)C(=O)C1=C3N(CCC1)CC2 | 5.7 µM (inactive) | 19.7 µM (inactive) | 18.9 µM (inactive) | 38 µM (inactive) | 42.1 µM (inactive) | 19.4 µM (inactive) | 2.72 µM (inactive) | 32.4 µM (inactive) | 20.6 µM (inactive) | 31.3 µM (inactive) | 30.5 µM (inactive) | 43.4 µM (inactive) | 70 µM (inactive) | 41 µM (inactive) | 27.9 | 56 µM (inactive) | 23.2 µM (inactive) |
| O=C1/C(=C/c2ccc(O)cc2)CCC1CNc1ccccc1 (configuration not stated) | 1.5 µM (inactive) | 2.4 µM (inactive) | 1.85 µM (inactive) | 12.3 µM (inactive) | 12.3 µM (inactive) | 14.4 µM (inactive) | 21.5 µM (inactive) | 15 µM (inactive) | 14.3 µM (inactive) | 14.4 µM (inactive) | 18.3 µM (inactive) | 6.9 µM (inactive) | 10.2 µM (inactive) | 15.6 µM (inactive) | 5.05 | 19 µM (inactive) | 10.3 µM (inactive) |
| CC(=O)OC1C[C@@H](C)C2(C[C@H](O)c3ccoc3)C(=O)OC[C@]13C2CCC(O)C31CO1 (some centres not stated) | > 100 µM (inactive) | > 100 µM (inactive) | > 100 µM (inactive) | > 100 µM (inactive) | > 100 µM (inactive) | > 100 µM (inactive) | > 100 µM (inactive) | > 100 µM (inactive) | > 100 µM (inactive) | > 100 µM (inactive) | > 100 µM (inactive) | > 100 µM (inactive) | > 100 µM (inactive) | > 100 µM (inactive) | > 100 | > 100 µM (inactive) | 1.51 µM (inactive) |
| Nc1nc(O)c(Br)c(-c2cccc([N+](=O)[O-])c2)n1 | > 91.4 µM (inactive) | 26.4 µM (inactive) | > 77.4 µM (inactive) | > 100 µM (inactive) | > 67.9 µM (inactive) | > 76 µM (inactive) | > 100 µM (inactive) | > 100 µM (inactive) | 40.9 µM (inactive) | > 100 µM (inactive) | > 100 µM (inactive) | > 100 µM (inactive) | > 100 µM (inactive) | > 62.1 µM (inactive) | > 100 | > 100 µM (inactive) | 91 µM (inactive) |
| CN(C)Cc1cc(C(=O)/C=C/c2c(Cl)cccc2Cl)cc(CN(C)C)c1O | 3.01 µM (inactive) | 2.98 µM (inactive) | 4.19 µM (inactive) | 8.2 µM (inactive) | 2.8 µM (inactive) | 3.05 µM (inactive) | 14 µM (inactive) | 5.82 µM (inactive) | 14.6 µM (inactive) | 4.61 µM (inactive) | 7.85 µM (inactive) | 5.2 µM (inactive) | 14.4 µM (inactive) | 2.79 µM (inactive) | 10.8 | 4.57 µM (inactive) | 16.4 µM (inactive) |
| CC(=O)c1csc2c1C(=O)c1ccccc1C2=O | 3.92 µM (inactive) | 1.78 µM (inactive) |  | 1.67 µM (inactive) | 2.02 µM (inactive) | 30.5 µM (inactive) | 2.43 µM (inactive) | 2.25 µM (inactive) | 1.26 µM (inactive) | 6.76 µM (inactive) | 1.97 µM (inactive) | 2.07 µM (inactive) | 1.79 µM (inactive) | 2.64 µM (inactive) | 4.55 | 2.88 µM (inactive) | 21.7 µM (inactive) |
